Measured values as given in patent US8835469B2 (Cadila Healthcare Limited, priority 2009, dated 2014).

Target: T1, glucokinase (GK) enzyme (Homo sapiens, UniProt P35557)
T1 sequence (P35557 1-465): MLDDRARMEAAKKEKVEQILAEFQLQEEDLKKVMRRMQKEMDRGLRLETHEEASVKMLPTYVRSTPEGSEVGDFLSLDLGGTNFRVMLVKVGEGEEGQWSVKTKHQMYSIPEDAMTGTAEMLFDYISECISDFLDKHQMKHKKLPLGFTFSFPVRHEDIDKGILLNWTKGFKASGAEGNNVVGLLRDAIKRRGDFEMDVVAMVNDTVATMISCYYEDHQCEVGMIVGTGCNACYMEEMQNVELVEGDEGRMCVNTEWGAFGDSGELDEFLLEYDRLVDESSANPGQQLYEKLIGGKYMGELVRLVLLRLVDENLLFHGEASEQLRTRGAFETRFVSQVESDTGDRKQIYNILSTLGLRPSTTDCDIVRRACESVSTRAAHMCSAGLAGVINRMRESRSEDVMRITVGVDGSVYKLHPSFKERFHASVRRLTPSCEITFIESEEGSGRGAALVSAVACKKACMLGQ
Test: In-vitro glucokinase (GK) activation assay (coupled with glucose-6-phosphate dehydrogenase, absorbance at 340)
Format: biochemical
Settings: glucose 2.5 mM; for activity at 0.1 µM / activity at 1 µM / activity at 5 µM / activity at 10 µM: read-out: % of GK activity wrt DMSO
Description: The compound of the invention was incubated with glucokinase (GK) enzyme (0.2 units) for 10 minutes in assay buffer at 26° C. After incubation, addition of glucose-6-phosphate dehydrogenase (2.5 units), ATP (1 mM) and glucose (2.5 mM). Absorbance is measured at 340 nm for 15 minutes with 10 second interval using UV transparent plate in kinetic mode on Spectramax-190 at 30° C.

Compound	activity at 0.1 µM (0.1 uM compound) [%]	activity at 1 µM (1 uM compound) [%]	activity at 5 µM (5 uM compound) [%]	activity at 10 µM (10 uM compound) [%]	% of GK activity wrt DMSO (0.1 uM compound) [%]	% of GK activity wrt DMSO (1 uM compound) [%]	% of GK activity wrt DMSO (5 uM compound) [%]	% of GK activity wrt DMSO (10 uM compound) [%]
Cc1nnc(-c2ccc(Oc3cc(OC4CCN(C)C4=O)cc(C(=O)Nc4ncc(Br)s4)c3)cc2)o1 (stereo not drawn) [Example 38, N-(5-Bromothiazol-2-yl)-3-(4-(5-methyl-1,3,4-oxadiazol-2-yl)phenoxy)-5-((1-methyl-2-oxopyrrolidin-3-yl)oxy)benzamide]	150	205	252	256				
Cc1nnc(-c2ccc(Oc3cc(OC4CCN(C)C4=O)cc(C(=O)Nc4ncccc4O)c3)cc2)o1 (stereo not drawn) [Example 39, N-(3-hydroxypyridin-2-yl)-3-(4-(5-methyl-1,3,4-oxadiazol-2-yl)phenoxy)-5-((1-methyl-2-oxopyrrolidin-3-yl)oxy)benzamide]	151	179	215	262				
CCOC(=O)c1csc(NC(=O)c2cc(Oc3ccc(-c4nnc(C)o4)cc3)cc(OC3CCN(C)C3=O)c2)n1 (stereo not drawn) [Example 26, Ethyl 2-(3-(4-(5-methyl-1,3,4-oxadiazol-2-yl)phenoxy)-5-((1-methyl-2-oxopyrrolidin-3-yl)oxy)benzamido)thiazole-4-carboxylate]	109	205	339	357				
Cc1nnc(-c2cccc(Oc3cc(OC4CCN(C)C4=O)cc(C(=O)Nc4nccs4)c3)c2)o1 (stereo not drawn) [Example 10, 3-(3-(5-Methyl-1,3,4-oxadiazol-2-yl)phenoxy)-5-((1-methyl-2-oxopyrrolidin-3-yl)oxy)-N-(thiazol-2-yl)benzamide]	130	204	232	228				
Cc1cc(NC(=O)c2cc(Oc3ccc(-c4nnc(C)o4)cc3)cc(OC3CCN(C)C3=O)c2)n[nH]1 (stereo not drawn) [Example 24, 3-(4-(5-Methyl-1,3,4-oxadiazol-2-yl)phenoxy)-N-(5-methyl-1H-pyrazol-3-yl)-5-((1-methyl-2-oxopyrrolidin-3-yl)oxy)benzamide]	146	147	173	189				
Cc1nnc(-c2ccc(Oc3cc(OC4CCN(C5CC5)C4=O)cc(C(=O)Nc4ncc(C)s4)c3)cc2)o1 (stereo not drawn) [Example 20, 3((1-Cyclopropyl-2-oxopyrrolidin-3-yl)oxy)-5-(4-(5-methyl-1,3,4-oxadiazol-2-yl)phenoxy)-N-(5-methylthiazol-2-yl)benzamide]	121	188	208	196				
Cc1csc(NC(=O)c2cc(Oc3ccc(-c4nnc(C5CC5)o4)cc3)cc(OC3CCN(C)C3=O)c2)n1 (stereo not drawn) [Example 33, 3-(4-(5-Cyclopropyl-1,3,4-oxadiazol-2-yl)phenoxy)-5-((1-methyl-2-oxopyrrolidin-3-yl)oxy)-N-(4-methylthiazol-2-yl)benzamide]	201	309	383	375				
Cc1nc(-c2ccc(Oc3cc(OC4CCN(C)C4=O)cc(C(=O)Nc4nccs4)c3)cc2)no1 (stereo not drawn) [Example 7, 3-(4-(5-Methyl-1,2,4-oxadiazol-3-yl)phenoxy)-5-((1-methyl-2-oxopyrrolidin-3-yl)oxy)-N-(thiazol-2-yl)benzamide]	164	314	356	347				
CN1CCC(Oc2cc(Oc3ccc(-c4nnc(-c5ccccc5)o4)cc3)cc(C(=O)Nc3nccs3)c2)C1=O (stereo not drawn) [Example 34, 3((1-Methyl-2-oxopyrrolidin-3-yl)oxy)-5-(4-(5-phenyl-1,3,4-oxadiazol-2-yl)phenoxy)-N-(thiazol-2-yl)benzamide]	182	350	396	337				
Cc1nnc(-c2ccc(Oc3cc(OC4CCN(C)C4=O)cc(C(=O)Nc4nnc(C5CC5)s4)c3)cc2)o1 (stereo not drawn) [Example 8, N-(5-Cyclopropyl-1,3,4-thiadiazol-2-yl)-3-(4-(5-methyl-1,3,4-oxadiazol-2-yl)phenoxy)-5-((1-methyl-2-oxopyrrolidin-3-yl)oxy)benzamide]	134	195	218	235				
CCc1nnc(-c2ccc(Oc3cc(OC4CCN(C)C4=O)cc(C(=O)Nc4nccs4)c3)cc2)o1 (stereo not drawn) [Example 29, 3-(4-(5-Ethyl-1,3,4-oxadiazol-2-yl)phenoxy)-5-((1-methyl-2-oxopyrrolidin-3-yl)oxy)-N-(thiazol-2-yl)benzamide]	167	268	335	347				
Cc1nnc(-c2ccc(Oc3cc(OC4CCN(C)C4=O)cc(C(=O)Nc4nc5ccccc5s4)c3)cc2)o1 (stereo not drawn) [Example 14, N-(Benzo[d]thiazol-2-yl)-3-(4-(5-methyl-1,3,4-oxadiazol-2-yl)phenoxy)-5-((1-methyl-2-oxopyrrolidin-3-yl)oxy)benzamide]	271	298	288	267				
Cc1nnc(-c2ccc(Oc3cc(OC4CCN(C)C4=O)cc(C(=O)Nc4cc(C)n(C(=O)OC(C)(C)C)n4)c3)cc2)o1 (stereo not drawn) [Example 12, tert-Butyl 5-methyl-3-(3-(4-(5-methyl-1,3,4-oxadiazol-2-yl)phenoxy)-5-((1-methyl-2-oxopyrrolidin-3-yl)oxy)benzamido)-1H-pyrazole-1-carboxylate]	107	119	139	150				
Cc1csc(NC(=O)c2cc(Oc3ccc(-c4noc(C)n4)cc3)cc(OC3CCN(C)C3=O)c2)n1 (stereo not drawn) [Example 22, 3-(4-(5-Methyl-1,2,4-oxadiazol-3-yl)phenoxy)-5-((1-methyl-2-oxopyrrolidin-3-yl)oxy)-N-(4-methylthiazol-2-yl)benzamide]	163	283	347	320				
Cc1nnc(-c2ccc(Oc3cc(OC4CCN(C(C)C)C4=O)cc(C(=O)Nc4ncc(C)s4)c3)cc2)o1 (stereo not drawn) [Example 17, 3((1-Isopropyl-2-oxopyrrolidin-3-yl)oxy)-5-(4-(5-methyl-1,3,4-oxadiazol-2-yl)phenoxy)-N-(5-methylthiazol-2-yl)benzamide]	125	158	192	178				
CCN1CCC(Oc2cc(Oc3ccc(-c4nnc(C)o4)cc3)cc(C(=O)Nc3nccs3)c2)C1=O (stereo not drawn) [Example 35, 3((1-Ethyl-2-oxopyrrolidin-3-yl)oxy)-5-(4-(5-methyl-1,3,4-oxadiazol-2-yl)phenoxy)-N-(thiazol-2-yl)benzamide]	181	322	382	366				
Cc1nnc(-c2ccc(Oc3cc(OC4CCN(C)C4=O)cc(C(=O)Nc4cnccn4)c3)cc2)o1 (stereo not drawn) [Example 9, 3-(4-(5-Methyl-1,3,4-oxadiazol-2-yl)phenoxy)-5-((1-methyl-2-oxopyrrolidin-3-yl)oxy)-N-(pyrazin-2-yl)benzamide]	168	292	345	346				
Cc1csc(NC(=O)c2cc(Oc3ccc(-c4nnc(-c5ccccc5)o4)cc3)cc(OC3CCN(C)C3=O)c2)n1 (stereo not drawn) [Example 31, 3-((1-Methyl-2-oxopyrrolidin-3-yl)oxy)-N-(4-methylthiazol-2-yl)-5-(4-(5-phenyl-1,3,4-oxadiazol-2-yl)phenoxy)benzamide]	146	295	356	343				
(S)-3-(4-(5-methyl-1,3,4-oxadiazol-2-yl)phenoxy)-5-((2-oxopyrrolidin-3-yl)oxy)-N-(thiazol-2-yl)benzamide [Example 70]					238.3	315.1	318.4	325.6
Cc1csc(NC(=O)c2cc(Oc3ccc(-c4nnc(C)o4)cc3)cc(OC3CCN(C(C)C)C3=O)c2)n1 (stereo not drawn) [Example 16, 3((1-Isopropyl-2-oxopyrrolidin-3-yl)oxy)-5-(4-(5-methyl-1,3,4-oxadiazol-2-yl)phenoxy)-N-(4-methylthiazol-2-yl)benzamide]	106	169	259	280				
Cc1nnc(-c2ccc(Oc3cc(OC4CCN(C5CC5)C4=O)cc(C(=O)Nc4nccs4)c3)cc2)o1 (stereo not drawn) [Example 21, 3((1-Cyclopropyl-2-oxopyrrolidin-3-yl)oxy)-5-(4-(5-methyl-1,3,4-oxadiazol-2-yl)phenoxy)-N-(thiazol-2-yl)benzamide]	120	213	278	281				
